Activity calls are given as the source filed them. No rule for the calls is given here.

Eight compounds from PubChem BioAssay AID1259407 (Chemical Carcinogenesis Research Information System (CCRIS), 2018) can be followed below.

The data set relates to CCRIS mutagenicity, Ames/micronucleus/aberration tests. The data set is described as follows: CCRIS mutagenicity studies.
[1] abbreviates: Test System: AMES SALMONELLA TYPHIMURIUM, Strain/Indicator: TA98, Metabolic Activation: NONE, Method: PREINCUBATION
[2] abbreviates: Test System: AMES SALMONELLA TYPHIMURIUM, Strain/Indicator: TA100, Metabolic Activation: NONE, Method: PREINCUBATION
Setting [3] is: Test System: AMES SALMONELLA TYPHIMURIUM, Strain/Indicator: TA98(1,8-DNP6), Metabolic Activation: NONE, Method: STANDARD PLATE.
Where [4] appears, read: Test System: AMES SALMONELLA TYPHIMURIUM, Strain/Indicator: TA98, Metabolic Activation: NONE, Method: STANDARD PLATE.
The mark [5] stands for this setting: Test System: AMES SALMONELLA TYPHIMURIUM, Strain/Indicator: TA98, Metabolic Activation: S-9, Method: STANDARD PLATE.
Setting [6] is: Test System: AMES SALMONELLA TYPHIMURIUM, Strain/Indicator: TA100, Metabolic Activation: NONE, Method: STANDARD PLATE.
Where [7] appears, read: Test System: AMES SALMONELLA TYPHIMURIUM, Strain/Indicator: TA100, Metabolic Activation: S-9, Method: STANDARD PLATE.
Setting [8] is: Test System: AMES SALMONELLA TYPHIMURIUM, Strain/Indicator: TA1535, Metabolic Activation: NONE, Method: STANDARD PLATE.

For `Nc1cc(S(=O)(=O)O)ccc1O`, the mutagenic call (Test System: AMES SALMONELLA TYPHIMURIUM, Strain/Indicator: TA97, Metabolic Activation: HAMSTER, LIVER, S-9, AROCLOR 1254 (10 OR 30%), Method: PREINCUBATION) is “inactive; negative”; the mutagenic call (Test System: AMES SALMONELLA TYPHIMURIUM, Strain/Indicator: TA97, Metabolic Activation: NONE, Method: PREINCUBATION) was “inactive; negative”; the mutagenic call (Test System: AMES SALMONELLA TYPHIMURIUM, Strain/Indicator: TA97, Metabolic Activation: RAT, LIVER, S-9, AROCLOR 1254 (10 OR 30%), Method: PREINCUBATION) is “inactive; negative”; the mutagenic call (Test System: AMES SALMONELLA TYPHIMURIUM, Strain/Indicator: TA98, Metabolic Activation: HAMSTER, LIVER, S-9, AROCLOR 1254 (10 OR 30%), Method: PREINCUBATION) was “inactive; negative”; the mutagenic call under setting [1] is “inactive; negative”; the mutagenic call (Test System: AMES SALMONELLA TYPHIMURIUM, Strain/Indicator: TA98, Metabolic Activation: RAT, LIVER, S-9, AROCLOR 1254 (10 OR 30%), Method: PREINCUBATION) is “inactive; negative”. For the same compound, the mutagenic call reads like this: (Test System: AMES SALMONELLA TYPHIMURIUM, Strain/Indicator: TA100, Metabolic Activation: HAMSTER, LIVER, S-9, AROCLOR 1254 (10 OR 30%), Method: PREINCUBATION) “inactive; negative”; under setting [2], “inactive; negative”; (Test System: AMES SALMONELLA TYPHIMURIUM, Strain/Indicator: TA100, Metabolic Activation: RAT, LIVER, S-9 AROCLOR 1254 (10 OR 30%), Method: PREINCUBATION) “inactive; negative”; (Test System: AMES SALMONELLA TYPHIMURIUM, Strain/Indicator: TA1535, Metabolic Activation: HAMSTER, LIVER, S-9, AROCLOR 1254 (10 OR 30%), Method: PREINCUBATION) “inactive; negative”; (Test System: AMES SALMONELLA TYPHIMURIUM, Strain/Indicator: TA1535, Metabolic Activation: NONE, Method: PREINCUBATION) “inactive; negative”; (Test System: AMES SALMONELLA TYPHIMURIUM, Strain/Indicator: TA1535, Metabolic Activation: RAT, LIVER, S-9, AROCLOR 1254 (10 OR 30%), Method: PREINCUBATION) “inactive; negative”.

On to `Cc1ccc(/C=C/c2ccc(N)cc2)cc1`, for which the mutagenic call under setting [3] is “inactive; negative”; the mutagenic call (Test System: AMES SALMONELLA TYPHIMURIUM, Strain/Indicator: TA98(1,8-DNP6), Metabolic Activation: S-9, Method: STANDARD PLATE) is “active; positive”; the mutagenic call under setting [4] is “inactive; negative”; the mutagenic call (Test System: AMES SALMONELLA TYPHIMURIUM, Strain/Indicator: TA98, Metabolic Activation: RAT LIVER S9, AROCHLOR, Method: STANDARD PLATE) was “active; positive”; the mutagenic call under setting [5] was “active; positive”; the mutagenic call under setting [6] was “inactive; negative”. In addition, the mutagenic call reads like this: (Test System: AMES SALMONELLA TYPHIMURIUM, Strain/Indicator: TA100, Metabolic Activation: RAT, LIVER, S9, AROCLOR, Method: STANDARD PLATE) “active; positive”; under setting [7], “active; positive”.

Turning to `CCCCOC(=O)CCCCCCCCC(=O)OCCCC`, the mutagenic call (Test System: AMES SALMONELLA TYPHIMURIUM, Strain/Indicator: TA97, Metabolic Activation: NONE, Method: STANDARD PLATE) was “inactive; negative”; the mutagenic call (Test System: AMES SALMONELLA TYPHIMURIUM, Strain/Indicator: TA97, Metabolic Activation: S-9, Method: STANDARD PLATE) is “inactive; negative”; the mutagenic call under setting [4] is “inactive; negative”; the mutagenic call under setting [5] was “inactive; negative”; the mutagenic call under setting [6] is “inactive; negative”; the mutagenic call under setting [7] was “inactive; negative”. Also, the mutagenic call was “inactive; negative” (Test System: AMES SALMONELLA TYPHIMURIUM, Strain/Indicator: TA102, Metabolic Activation: NONE, Method: STANDARD PLATE); “inactive; negative” (Test System: AMES SALMONELLA TYPHIMURIUM, Strain/Indicator: TA102, Metabolic Activation: S-9, Method: STANDARD PLATE); “inactive; negative” (Test System: E.COLI, Strain/Indicator: WP2 (PKM101), Metabolic Activation: NONE, Method: STANDARD PLATE); “inactive; negative” (Test System: E.COLI, Strain/Indicator: WP2 (PKM101), Metabolic Activation: S-9, Method: STANDARD PLATE).

Consider `Nc1nc(N)c(-c2ccccc2)s1`, for which the mutagenic call by setting is: (Test System: MOUSE LYMPHOMA, Strain/Indicator: L5178Y (TK+/TK-), Metabolic Activation: NONE, Method: SUSPENSION/PLATE) “active; positive. reevaluation of results: inconclusive”; (Test System: MOUSE LYMPHOMA, Strain/Indicator: L5178Y (TK+/TK-), Metabolic Activation: RAT, LIVER, S-9, AROCLOR 1254, Method: SUSPENSION/PLATE) “active; positive. reevaluation of results: inconclusive”.

With `O=C1c2ccccc2-c2c3c(cc4ccnc1c24)OCO3`, the mutagenic call under setting [1] is “inactive; negative”; the mutagenic call (Test System: AMES SALMONELLA TYPHIMURIUM, Strain/Indicator: TA98, Metabolic Activation: RAT, LIVER, S-9, PHENOBARBITAL AND BETA-NAPHTHOFLAVONE, Method: PREINCUBATION) was “active; positive”; the mutagenic call under setting [2] is “inactive; negative”; the mutagenic call (Test System: AMES SALMONELLA TYPHIMURIUM, Strain/Indicator: TA100, Metabolic Activation: RAT, LIVER, S-9, PHENOBARBITAL AND BETA-NAPHTHOFLAVONE, Method: PREINCUBATION) was “active; positive”.

`CC(C)CN(N=O)/C(N)=N/[N+](=O)[O-]`: the mutagenic call runs as follows: (Test System: AMES SALMONELLA TYPHIMURIUM, Strain/Indicator: TA100, Metabolic Activation: RAT, LIVER, S-9, KC500 OR PHENOBARBITAL, Method: LIQUID SUSPENSION) “active; positive”; under setting [8], “active; positive”; (Test System: AMES SALMONELLA TYPHIMURIUM, Strain/Indicator: TA1535, Metabolic Activation: RAT, LIVER, S-9, KC500 OR PHENOBARBITAL, Method: LIQUID SUSPENSION) “active; positive”.

For the compound `COC(=O)c1oc([N+](=O)[O-])c(-c2ccccc2)c1-c1ccccc1`, the mutagenic call is “active; positive” under setting [3]; “inactive; negative” (Test System: AMES SALMONELLA TYPHIMURIUM, Strain/Indicator: TA98(NR), Metabolic Activation: NONE, Method: STANDARD PLATE); “active; positive” under setting [1]; “active; positive” under setting [4]; “active; positive” (Test System: AMES SALMONELLA TYPHIMURIUM, Strain/Indicator: TA100(NR), Metabolic Activation: NONE, Method: STANDARD PLATE); “active; positive” under setting [2]. Besides, the mutagenic call under setting [6] was “active; positive” and the mutagenic call (Test System: AMES SALMONELLA TYPHIMURIUM, Strain/Indicator: TA104, Metabolic Activation: NONE, Method: STANDARD PLATE) is “active; positive”.

As to `CCOP(=O)(OCC)O/C(=C\Cl)c1ccc(Cl)cc1Cl`, the mutagenic call by setting is: under setting [4], “inactive; negative”; (Test System: AMES SALMONELLA TYPHIMURIUM, Strain/Indicator: TA98, Metabolic Activation: RAT, LIVER, S-9, AROCLOR 1254, Method: STANDARD PLATE) “inactive; negative”; (Test System: AMES SALMONELLA TYPHIMURIUM, Strain/Indicator: TA100, Metabolic Activation: RAT, LIVER, S-9, AROCLOR 1254, Method: STANDARD PLATE) “inactive; negative”; (Test System: AMES SALMONELLA TYPHIMURIUM, Strain/Indicator: TA100, Metabolic Activation: S-9 MIX, Method: STANDARD PLATE) “inactive; negative”; under setting [8], “inactive; negative”; (Test System: AMES SALMONELLA TYPHIMURIUM, Strain/Indicator: TA1535, Metabolic Activation: RAT, LIVER, S-9, AROCLOR 1254, Method: STANDARD PLATE) “inactive; negative”. For the same compound, the mutagenic call (Test System: AMES SALMONELLA TYPHIMURIUM, Strain/Indicator: TA1537, Metabolic Activation: NONE, Method: STANDARD PLATE) is “inactive; negative”; the mutagenic call (Test System: AMES SALMONELLA TYPHIMURIUM, Strain/Indicator: TA1537, Metabolic Activation: RAT, LIVER, S-9, AROCLOR 1254, Method: STANDARD PLATE) was “inactive; negative”; the mutagenic call (Test System: AMES SALMONELLA TYPHIMURIUM, Strain/Indicator: TA1538, Metabolic Activation: NONE, Method: STANDARD PLATE) was “inactive; negative”; the mutagenic call (Test System: AMES SALMONELLA TYPHIMURIUM, Strain/Indicator: TA1538, Metabolic Activation: RAT, LIVER, S-9, AROCLOR 1254, Method: STANDARD PLATE) was “inactive; negative”.
